pIC50: −log10 of the molar value. Ends that are not written are not given here.

For assay [1], the system named is fibrinogen binding to Human platelets. Description: Inhibition of 125I-fibrinogen binding to ADP-treated human platelets. Particulars: 10^8 platelets/0.5 ml treated with 5-10 micromoles of ADP; 125I-labelled fibrinogen; read-out: IC50 or 50% inhibition of fibrinogen binding. On the procedure: The following experiment illustrates that the peptides of the invention can inhibit fibrinogen binding to platelets. Human platelets at a concentration of 10^8 cells/0.5 ml were treated with 5-10 micromoles of ADP. Various concentrations of the inhibitory peptides were mixed with the platelets and then […] ^125 I-labelled fibrinogen was added to the solution. The IC50 or 50% inhibition of fibrinogen binding was determined for each peptide by allowing the reaction to proceed to a conclusion, separating the platelets from unbound ^125 I-fibrinogen and determining the amount of labelled fibrinogen bound to the platelets. The less labelled fibrinogen bound to the platelets, the better the inhibition.

Assay [2] has as its system human platelets. Description: Inhibition of ADP-induced fibrinogen (gamma chain multimer) cross-linked aggregation of platelets, light transmission. The arrangement: dose or concentration left out as unconfirmed. It is filed as cell-based. Particulars: 10^8 platelets treated with 5-10 micromoles of ADP; 7 micromoles of gamma chain fibrinogen multimers. On the procedure: The sole figure of the drawing illustrates the inhibition of ADP-induced fibrinogen dependent platelet aggregation caused by incubation with various peptides of the invention.
A 60 µM concentration of a variety of synthetic peptides of the invention was added to 10^8 platelets which had been treated with 5-10 micromoles of ADP. At time zero, 7 micromoles of gamma chain fibrinogen multimers was added and the transmission of the solution was monitored for platelet aggregate formation. FIG. 1 illustrates the results of this experiment. […] While gamma chain multimers were used, similar results have been obtained with bivalent fibrinogen molecules.

Assay [3] relates to human platelets. Description: Aggregation of ADP-treated platelets separated from plasma proteins by the synthetic peptide-albumin conjugate, in the absence of fibrinogen. It is filed as cell-based. Particulars: peptide added to the platelets prior to the conjugate. On the procedure:
Ten micromoles of ADP was added to 10^8 platelets which had been separated from the plasma proteins.

With “Cys-Tyr-Gly-Gln-Gln-His-His-Leu-Gly-Gly-Ala-Lys-Gln-Ala-Gly-Asp-Val-COOH (CYGQQHHLGGAKQAGDV-OH) [heptadecapeptide]”, in assay [1], the pIC50 – broadly, −log10 of the IC50, conventionally taken in molar units – was 4.55.
Turning to HHLGGAKQAGDV [dodecapeptide], in assay [1], the pIC50 is 4.55. In addition, the “inhibition of the aggregation reaction (transmission)” value in the assay with human platelets [2] is reported as “almost complete inhibition”. In addition, in the assay with human platelets [3], the “inhibition of aggregation induced by the synthetic peptide-albumin conjugate” value is recorded as “the aggregation reaction is inhibited”.

The values are drawn from US4661471A, “Method of inhibiting and inducing human platelet aggregation” (New England Deaconess Hospital, priority 1984, dated 1987).
